ChEMBL document CHEMBL1201862, “PubChem BioAssay data set” (2004)
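Assay format: 96-well plates, 48-hour exposure. GI50 marks 50% less growth.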 The source made the active and inactive calls. Rule as the data show it: active = GI50 up to about 1.1 µM and inactive = higher. Where a SMILES comes first, the peptide text is derived from it. The star is where a group is joined. Boc = CC(C)(C)OC(=O)*

Columns and labels:
Test in all cases: growth of human tumour cells (NCI), 48 h
A498 = tested on: A498
EKVX = tested on: EKVX
HCC 2998 = tested on: HCC 2998
HCT-116 = tested on: HCT-116
HCT-15 = tested on: HCT-15
Hs-578T = tested on: Hs-578T
IGROV-1 = tested on: IGROV-1
M14 = tested on: M14
MDA-MB-435 = tested on: MDA-MB-435
MOLT-4 = tested on: MOLT-4
NCI-H460 = tested on: NCI-H460
OVCAR-8 = tested on: OVCAR-8
RPMI-8226 = tested on: RPMI-8226
RXF 393 = tested on: RXF 393
SF-295 = tested on: SF-295
SK-MEL-2 = tested on: SK-MEL-2
SNB-19 = tested on: SNB-19
T47D = tested on: T47D
TK-10 = tested on: TK-10
UO-31 = tested on: UO-31

Q: For COc1ccc(/C=C2\CCS(=O)(=O)c3ccccc3C2=O)cc1, which GI50 (A498) is on record?
A: 20.9 µM (inactive)

Q: And the GI50 (EKVX)?
A: 19.1 µM (inactive)

Q: And the GI50 (HCC 2998)?
A: 20 µM (inactive)

Q: What about the GI50 (HCT-116) of the same compound?
A: 17.1 µM (inactive)

Q: What about the GI50 (HCT-15) of the same compound?
A: 19.6 µM

Q: And the GI50 (Hs-578T)?
A: 31.3 µM (inactive)

Q: And the GI50 (IGROV-1)?
A: 18.2 µM (inactive)

Q: And the GI50 (M14)?
A: 34.4 µM (inactive)

Q: What about the GI50 (MDA-MB-435) of the same compound?
A: 26.9 µM (inactive)

Q: And the GI50 (MOLT-4)?
A: 18.1 µM (inactive)

Q: And the GI50 (NCI-H460)?
A: 21.7 µM (inactive)

Q: What about the GI50 (OVCAR-8) of the same compound?
A: 22.2 µM (inactive)

Q: What about the GI50 (RPMI-8226) of the same compound?
A: 19.3 µM (inactive)

Q: What about the GI50 (RXF 393) of the same compound?
A: 22.6 µM (inactive)

Q: What about the GI50 (SF-295) of the same compound?
A: 35 µM (inactive)

Q: What about the GI50 (SK-MEL-2) of the same compound?
A: 31.4 µM (inactive)

Q: And the GI50 (SNB-19)?
A: 24.5 µM (inactive)

Q: What about the GI50 (T47D) of the same compound?
A: 22.7 µM (inactive)

Q: What about the GI50 (TK-10) of the same compound?
A: 23.2 µM (inactive)

Q: What about the GI50 (UO-31) of the same compound?
A: 19.7 µM (inactive)

Q: What does the source list for O=C(Nc1ccccc1)c1cc(S(=O)(=O)n2ccnc2O)c(S)cc1Cl?
A: GI50 (A498): > 100 µM (inactive); GI50 (EKVX): > 100 µM (inactive); GI50 (HCC 2998): > 100 µM (inactive); GI50 (HCT-116): > 100 µM (inactive); GI50 (HCT-15): > 100 µM; GI50 (Hs-578T): > 100 µM (inactive); GI50 (IGROV-1): > 100 µM (inactive); GI50 (M14): > 100 µM (inactive); GI50 (MDA-MB-435): > 100 µM (inactive); GI50 (MOLT-4): > 100 µM (inactive); GI50 (NCI-H460): > 100 µM (inactive); GI50 (OVCAR-8): > 100 µM (inactive); GI50 (RPMI-8226): > 100 µM (inactive); GI50 (RXF 393): > 100 µM (inactive); GI50 (SF-295): > 100 µM (inactive); GI50 (SK-MEL-2): > 100 µM (inactive); GI50 (SNB-19): > 100 µM (inactive); GI50 (T47D): > 100 µM (inactive); GI50 (TK-10): > 100 µM (inactive); GI50 (UO-31): > 100 µM (inactive)

Q: With O=[N+]([O-])c1ccc(CSc2c3ccccc3nc3ccccc23)cc1 as the compound, how does the GI50 (A498) read?
A: 23.7 µM (inactive)

Q: And the GI50 (EKVX)?
A: 15.9 µM (inactive)

Q: And the GI50 (HCC 2998)?
A: 16.1 µM (inactive)

Q: And the GI50 (HCT-116)?
A: 2.78 µM (inactive)

Q: What about the GI50 (HCT-15) of the same compound?
A: 3.91 µM

Q: And the GI50 (Hs-578T)?
A: 3.21 µM (inactive)

Q: What about the GI50 (IGROV-1) of the same compound?
A: 2.82 µM (inactive)

Q: And the GI50 (M14)?
A: 4.56 µM (inactive)

Q: And the GI50 (MDA-MB-435)?
A: 4.94 µM (inactive)

Q: And the GI50 (MOLT-4)?
A: 2.31 µM (inactive)

Q: What about the GI50 (NCI-H460) of the same compound?
A: 20.6 µM (inactive)

Q: What about the GI50 (OVCAR-8) of the same compound?
A: 3.33 µM (inactive)

Q: And the GI50 (RPMI-8226)?
A: 2.85 µM (inactive)

Q: What about the GI50 (RXF 393) of the same compound?
A: 5.47 µM (inactive)

Q: And the GI50 (SF-295)?
A: 21.1 µM (inactive)

Q: What about the GI50 (SK-MEL-2) of the same compound?
A: 16.9 µM (inactive)

Q: And the GI50 (SNB-19)?
A: 15.8 µM (inactive)

Q: What about the GI50 (T47D) of the same compound?
A: 1.85 µM (inactive)

Q: What about the GI50 (TK-10) of the same compound?
A: 6.62 µM (inactive)

Q: And the GI50 (UO-31)?
A: 5.62 µM (inactive)

Q: How did the GI50 (A498) turn out when CCOC(=O)C(CC(C)C)NC(=O)C(Cc1ccccc1)NC(=O)CNC(=O)OC(C)(C)C (stereo not drawn) (Boc-Gly-Phe-Leu-OEt; configuration not given here) was run?
A: 22.1 µM (inactive)

Q: And the GI50 (EKVX)?
A: 22.3 µM (inactive)

Q: And the GI50 (HCC 2998)?
A: 19.7 µM (inactive)

Q: What about the GI50 (HCT-116) of the same compound?
A: 17.9 µM (inactive)

Q: And the GI50 (HCT-15)?
A: 18.4 µM

Q: And the GI50 (Hs-578T)?
A: 31.8 µM (inactive)

Q: What about the GI50 (IGROV-1) of the same compound?
A: 21.6 µM (inactive)

Q: What about the GI50 (M14) of the same compound?
A: 20 µM (inactive)

Q: And the GI50 (MDA-MB-435)?
A: 18.2 µM (inactive)

Q: What about the GI50 (MOLT-4) of the same compound?
A: 11.1 µM (inactive)

Q: What about the GI50 (NCI-H460) of the same compound?
A: 12.1 µM (inactive)

Q: And the GI50 (OVCAR-8)?
A: 21.7 µM (inactive)

Q: And the GI50 (RPMI-8226)?
A: 20.9 µM (inactive)

Q: And the GI50 (RXF 393)?
A: 25.8 µM (inactive)

Q: What about the GI50 (SF-295) of the same compound?
A: 34.8 µM (inactive)

Q: And the GI50 (SK-MEL-2)?
A: 28.9 µM (inactive)

Q: What about the GI50 (SNB-19) of the same compound?
A: 31.6 µM (inactive)

Q: What about the GI50 (T47D) of the same compound?
A: 26.5 µM (inactive)

Q: And the GI50 (TK-10)?
A: 31 µM (inactive)

Q: What about the GI50 (UO-31) of the same compound?
A: 45.8 µM (inactive)

Q: Which results are given for Nc1ccc(S(=O)(=O)Nc2cnc3c(Cl)cccc3n2)cc1 [CHLORSULFAQUINOXALINE]?
A: GI50 (A498): 131 µM (inactive); GI50 (EKVX): 222 µM (inactive); GI50 (HCC 2998): 99.5 µM (inactive); GI50 (HCT-116): 7.28 µM (inactive); GI50 (HCT-15): 53 µM; GI50 (Hs-578T): 63.5 µM (inactive); GI50 (IGROV-1): 2.58 µM (inactive); GI50 (M14): 274 µM (inactive); GI50 (MDA-MB-435): > 70 µM (inactive); GI50 (MOLT-4): 75.2 µM (inactive); GI50 (NCI-H460): 129 µM (inactive); GI50 (OVCAR-8): 144 µM (inactive); GI50 (RPMI-8226): 129 µM (inactive); GI50 (RXF 393): 82.2 µM (inactive); GI50 (SF-295): 31.4 µM (inactive); GI50 (SK-MEL-2): 226 µM (inactive); GI50 (SNB-19): 92.3 µM (inactive); GI50 (T47D): 96.2 µM (inactive); GI50 (TK-10): 41.6 µM (inactive); GI50 (UO-31): 151 µM (inactive)
